Measured values: paper PMC10227015, “From a drug repositioning to a structure-based drug design approach to tackle acute lymphoblastic leukemia” (Nature Communications, 2023)

Legend:
Experiment in all cases: KINOMEscan competition binding
Conditions in all cases: OR0642 1 µM; read-out: %Control
ABL1-phosphorylated = target: T1, ABL1-phosphorylated (Homo sapiens, UniProt P00519)
T1 construct: purchased Eurofins DiscoverX (KINOMEscan scanEDGE 97)
Protocol: (§1) Kinome profiling was provided by Eurofins DiscoverX Corporation. Determination of the % control activity for 97 kinases was obtained through an active site-directed competition binding assay that quantitatively measure interactions between compound and kinases. OR0642 was used at 1 μM.
(§2) Supplementary Table 3. KINOMEscan™ Profiling of OR0642. Competition binding assay to
(§3) quantitatively measure interactions between OR0642 (1 µM) and 97 human kinases and disease
(§4) relevant mutant variants.

AKT1 = target: T2, AKT1 (Homo sapiens, UniProt P31749)
T2 construct: purchased Eurofins DiscoverX (KINOMEscan scanEDGE 97)
Protocol: as §1, §2, §3, §4

AKT2 = target: T3, AKT2 (Homo sapiens, UniProt P31751)
T3 construct: purchased Eurofins DiscoverX (KINOMEscan scanEDGE 97)
Protocol: as §1, §2, §3, §4

ALK = target: T4, ALK (Homo sapiens, UniProt Q9UM73)
T4 construct: purchased Eurofins DiscoverX (KINOMEscan scanEDGE 97)
Protocol: as §1, §2, §3, §4

AURKA = target: T5, AURKA (Homo sapiens, UniProt O14965)
T5 construct: purchased Eurofins DiscoverX (KINOMEscan scanEDGE 97)
Protocol: as §1, §2, §3, §4

AURKB = target: T6, AURKB (Homo sapiens, UniProt Q96GD4)
T6 construct: purchased Eurofins DiscoverX (KINOMEscan scanEDGE 97)
Protocol: as §1, §2, §3, §4

AXL = target: T7, AXL (Homo sapiens, UniProt P30530)
T7 construct: purchased Eurofins DiscoverX (KINOMEscan scanEDGE 97)
Protocol: as §1, §2, §3, §4

BRAF = target: T8, BRAF (Homo sapiens, UniProt P15056)
T8 construct: purchased Eurofins DiscoverX (KINOMEscan scanEDGE 97)
Protocol: as §1, §2, §3, §4

CDK2 = target: T9, CDK2 (Homo sapiens, UniProt P24941)
T9 construct: purchased Eurofins DiscoverX (KINOMEscan scanEDGE 97)
Protocol: as §1, §2, §3, §4

CDK9 = target: T10, CDK9 (Homo sapiens, UniProt P50750)
T10 construct: purchased Eurofins DiscoverX (KINOMEscan scanEDGE 97)
Protocol: as §1, §2, §3, §4

CHEK1 = target: T11, CHEK1 (Homo sapiens, UniProt O14757)
T11 construct: purchased Eurofins DiscoverX (KINOMEscan scanEDGE 97)
Protocol: as §1, §2, §3, §4

EGFR = target: T12, EGFR (Homo sapiens, UniProt P00533)
T12 construct: purchased Eurofins DiscoverX (KINOMEscan scanEDGE 97)
Protocol: as §1, §2, §3, §4

ERBB2 = target: T13, ERBB2 (Homo sapiens, UniProt P04626)
T13 construct: purchased Eurofins DiscoverX (KINOMEscan scanEDGE 97)
Protocol: as §1, §2, §3, §4

ERBB4 = target: T14, ERBB4 (Homo sapiens, UniProt Q15303)
T14 construct: purchased Eurofins DiscoverX (KINOMEscan scanEDGE 97)
Protocol: as §1, §2, §3, §4

ERK1 = target: T15, ERK1 (Homo sapiens, UniProt P27361)
T15 construct: purchased Eurofins DiscoverX (KINOMEscan scanEDGE 97)
Protocol: as §1, §2, §3, §4

FGFR2 = target: T16, FGFR2 (Homo sapiens, UniProt P21802)
T16 construct: purchased Eurofins DiscoverX (KINOMEscan scanEDGE 97)
Protocol: as §1, §2, §3, §4

FGFR3 = target: T17, FGFR3 (Homo sapiens, UniProt P22607)
T17 construct: purchased Eurofins DiscoverX (KINOMEscan scanEDGE 97)
Protocol: as §1, §2, §3, §4

KIT(V559D,T670I) = target: T18, KIT(V559D,T670I) (Homo sapiens, UniProt P10721, T670I/V559D)
T18 construct: purchased Eurofins DiscoverX (KINOMEscan scanEDGE 97)
Protocol: as §1, §2, §3, §4

LKB1 = target: T19, LKB1 (Homo sapiens, UniProt Q15831)
T19 construct: purchased Eurofins DiscoverX (KINOMEscan scanEDGE 97)
Protocol: as §1, §2, §3, §4

MAP3K4 = target: T20, MAP3K4 (Homo sapiens, UniProt Q9Y6R4)
T20 construct: purchased Eurofins DiscoverX (KINOMEscan scanEDGE 97)
Protocol: as §1, §2, §3, §4

MET = target: T21, MET (Homo sapiens, UniProt P08581)
T21 construct: purchased Eurofins DiscoverX (KINOMEscan scanEDGE 97)
Protocol: as §1, §2, §3, §4

PAK1 = target: T22, PAK1 (Homo sapiens, UniProt Q13153)
T22 construct: purchased Eurofins DiscoverX (KINOMEscan scanEDGE 97)
Protocol: as §1, §2, §3, §4

PDPK1 = target: T23, PDPK1 (Homo sapiens, UniProt O15530)
T23 construct: purchased Eurofins DiscoverX (KINOMEscan scanEDGE 97)
Protocol: as §1, §2, §3, §4

PIK3CA = target: T24, PIK3CA (Homo sapiens, UniProt P42336)
T24 construct: purchased Eurofins DiscoverX (KINOMEscan scanEDGE 97)
Protocol: as §1, §2, §3, §4

PIM1 = target: T25, PIM1 (Homo sapiens, UniProt P11309)
T25 construct: purchased Eurofins DiscoverX (KINOMEscan scanEDGE 97)
Protocol: as §1, §2, §3, §4

PKAC-alpha = target: T26, PKAC-alpha (Homo sapiens, UniProt P17612)
T26 construct: purchased Eurofins DiscoverX (KINOMEscan scanEDGE 97)
Protocol: as §1
(§5) Supplementary Table 3. KINOMEscan™ Profiling of OR0642. Competition binding assay to quantitatively measure interactions between OR0642 (1 µM) and 97 human kinases and disease relevant mutant variants.
(§6) Target Gene Symbol %Control Target Gene Symbol %Control […]

PLK1 = target: T27, PLK1 (Homo sapiens, UniProt P53350)
T27 construct: purchased Eurofins DiscoverX (KINOMEscan scanEDGE 97)
Protocol: as §1, §5, §6

PLK3 = target: T28, PLK3 (Homo sapiens, UniProt Q9H4B4)
T28 construct: purchased Eurofins DiscoverX (KINOMEscan scanEDGE 97)
Protocol: as §1, §5, §6

PLK4 = target: T29, PLK4 (Homo sapiens, UniProt O00444)
T29 construct: purchased Eurofins DiscoverX (KINOMEscan scanEDGE 97)
Protocol: as §1, §5, §6

PRKCE = target: T30, PRKCE (Homo sapiens, UniProt Q02156)
T30 construct: purchased Eurofins DiscoverX (KINOMEscan scanEDGE 97)
Protocol: as §1, §5, §6

RAF1 = target: T31, RAF1 (Homo sapiens, UniProt P04049)
T31 construct: purchased Eurofins DiscoverX (KINOMEscan scanEDGE 97)
Protocol: as §1, §5, §6

RIOK2 = target: T32, RIOK2 (Homo sapiens, UniProt Q9BVS4)
T32 construct: purchased Eurofins DiscoverX (KINOMEscan scanEDGE 97)
Protocol: as §1, §5, §6

[1] = target: T33, RSK2(Kin.Dom.1-N-terminal) (Homo sapiens, UniProt P51812)
T33 construct: RSK2(Kin.Dom.1-N-terminal); purchased Eurofins DiscoverX (KINOMEscan scanEDGE 97)
Protocol: as §1, §5, §6

SNARK = target: T34, SNARK (Homo sapiens, UniProt Q9H093)
T34 construct: purchased Eurofins DiscoverX (KINOMEscan scanEDGE 97)
Protocol: as §1, §5, §6

TIE2 = target: T35, TIE2 (Homo sapiens, UniProt Q02763)
T35 construct: purchased Eurofins DiscoverX (KINOMEscan scanEDGE 97)
Protocol: as §1, §5, §6

TRKA = target: T36, TRKA (Homo sapiens, UniProt P04629)
T36 construct: purchased Eurofins DiscoverX (KINOMEscan scanEDGE 97)
Protocol: as §1, §5, §6

TSSK1B = target: T37, TSSK1B (Homo sapiens, UniProt Q9BXA7)
T37 construct: purchased Eurofins DiscoverX (KINOMEscan scanEDGE 97)
Protocol: as §1, §5, §6

YANK3 = target: T38, YANK3 (Homo sapiens, UniProt Q86UX6)
T38 construct: purchased Eurofins DiscoverX (KINOMEscan scanEDGE 97)
Protocol: as §1, §5, §6

p38-alpha = target: T39, p38-alpha (Homo sapiens, UniProt Q16539)
T39 construct: purchased Eurofins DiscoverX (KINOMEscan scanEDGE 97)
Protocol: as §1, §5, §6

p38-beta = target: T40, p38-beta (Homo sapiens, UniProt Q15759)
T40 construct: purchased Eurofins DiscoverX (KINOMEscan scanEDGE 97)
Protocol: as §1, §5, §6

CCCN(c1nc(-c2nc(N)cc(N)n2)cs1)c1cc(-c2ccc(S(=O)(=O)N3CCN(C)CC3)cc2C(F)(F)F)ccc1C [OR0642]
remaining binding at 1 µM (ABL1-phosphorylated): 99% | remaining binding at 1 µM (AKT1): 91% | remaining binding at 1 µM (AKT2): 100% | remaining binding at 1 µM (ALK): 80% | remaining binding at 1 µM (AURKA): 96% | remaining binding at 1 µM (AURKB): 85% | remaining binding at 1 µM (AXL): 89% | remaining binding at 1 µM (BRAF): 99% | remaining binding at 1 µM (CDK2): 100% | remaining binding at 1 µM (CDK9): 98% | remaining binding at 1 µM (CHEK1): 91% | remaining binding at 1 µM (EGFR): 82% | remaining binding at 1 µM (ERBB2): 100% | remaining binding at 1 µM (ERBB4): 100% | remaining binding at 1 µM (ERK1): 86% | remaining binding at 1 µM (FGFR2): 89% | remaining binding at 1 µM (FGFR3): 79% | remaining binding at 1 µM (KIT(V559D,T670I)): 100% | remaining binding at 1 µM (LKB1): 99% | remaining binding at 1 µM (MAP3K4): 97% | remaining binding at 1 µM (MET): 100% | remaining binding at 1 µM (PAK1): 100% | remaining binding at 1 µM (PDPK1): 98% | remaining binding at 1 µM (PIK3CA): 100% | remaining binding at 1 µM (PIM1): 100% | remaining binding at 1 µM (PKAC-alpha): 85% | remaining binding at 1 µM (PLK1): 90% | remaining binding at 1 µM (PLK3): 100% | remaining binding at 1 µM (PLK4): 81% | remaining binding at 1 µM (PRKCE): 100% | remaining binding at 1 µM (RAF1): 88% | remaining binding at 1 µM (RIOK2): 98% | remaining binding at 1 µM [1]: 100% | remaining binding at 1 µM (SNARK): 88% | remaining binding at 1 µM (TIE2): 94% | remaining binding at 1 µM (TRKA): 100% | remaining binding at 1 µM (TSSK1B): 100% | remaining binding at 1 µM (YANK3): 97% | remaining binding at 1 µM (p38-alpha): 100% | remaining binding at 1 µM (p38-beta): 91%
